Source: US11622964B2, “Method for destroying cellular mechanical homeostasis and promoting regeneration and repair of tissues and organs, and use thereof” (INSTITUTE OF ZOOLOGY, CHINESE ACADEMY OF SCIENCES, priority 2018, dated 2023)

Legend:
[1] = system: CCl4-induced mild hepatic fibrosis; assay: CCl4-induced mild hepatic fibrosis model; type: in vivo, mice; settings: 1 mg or 3 mg per kg per day, intraperitoneal or tail vein injection, 1-2 weeks
Protocol: The ICR, C57Bl/6 mice used in the experiment are purchased from SPF (Beijing) Biotechnology Co., Ltd., carbon tetrachloride is purchased from Aladdin Reagent (Shanghai) Co., Ltd. (C131583-1L), and corn oil is purchased from Sigma (C8267). 8-week-old female mice are selected and housed in the barrier for one week, they are randomly divided into two groups, and respectively injected with CCl4/corn oil (a volume ratio of 2:5) and corn oil. The dose of CCl4 is 0.5 ml/kg, twice a week for 4 weeks. After 4 weeks, the mice are anesthetized with 5% chloral hydrate, and part of the hepatic lobe is taken out, fixing with 4% paraformaldehyde, dehydrating and immersing in wax, then staining with Sirius Red (YY-R20384-100ML) kit for fibrosis, wherein the collagenous fibers are red, as shown in FIG. 2B. After successful identification of the modeling, the drug administration is performed by intraperitoneal injection or tail vein injection. The small molecule is dissolved in dimethyl sulfoxide at a concentration of 1 mg or 3 mg per kg per day; successfully adding 2-5% DMSO+30% propylene glycol+2% Tween 80+ddH2O, and the control group (“Control”) is abbreviated as “Con” in the figure. […]

CCl4 liver damage = assay: Blood biochemistry, hepatocyte proliferation, apoptosis and liver function genes after CCl4 liver damage; type: in vivo, mice
Protocol: Blood biochemical analysis (fasting 12-16 hours before sampling) further confirms that myosin inhibitor (−)-blebbistatin may reduce the content of liver damage indicators such as ALT, AST and GGT, as shown in FIG. 4A. Further, Alb-crexmTmG hybrid mice are used for fibrosis modeling with CCl4, wherein GFP is expressed in mature hepatocytes of the mice. […] In summary, the myosin inhibitor (−)-blebbistatin promotes liver regeneration by inhibiting fibrosis of liver damage, promoting hepatocyte proliferation, and reducing apoptosis, thereby maintaining liver function.

liver tissue = assay: Liver tissue rigidity (Young's modulus, Mark-10 ESM303) and second harmonic scanning in CCl4 chronic severe liver damage; type: in vivo, mice
Source text: The ICR, C57Bl/6 mice used in the experiment are purchased from SPF (Beijing) Biotechnology Co., Ltd.; elbow tweezers, finger tweezers, scissors, needle holders, suture needles, suture threads are purchased from Asone Trading Co., Ltd.; antibiotics are purchased from Gibco (15240-062). A chronic severe liver damage model induced by CCl4 (the same as Example 4) is constructed, and the mice are sacrificed by cervical dislocation after modeling. […] It can be seen from the above results that, the myosin inhibitor reduces the tissue rigidity during liver damage process.

human fibroblasts = assay: Transcriptome sequencing of treated human fibroblasts; type: cell-based
[2] = system: homologous recombination repair; assay: Homologous recombination repair reporter plasmid system (flow cytometry, GFP/mRuby); type: cell-based; settings: treated for 4 h at 18 h, 24 h, 36 h after medium change; flow analysis 72 h after transfection
Protocol: First, a reporter plasmid system for homologous recombination repair is constructed, and the cells emit green fluorescence only when the foreign homologous sequence and the homologous fragment of the cell are homologously recombined. Meanwhile, mRuby red fluorescent protein is transferred to label the efficiency of transfected cells, and the efficiency of homologous recombination is determined by flow cytometry analysis of the ratio of green fluorescent protein to mRuby. 18 h after changing the medium for the transfection, the control group is treated with DMSO for 4 h; and 18 h, 24 h, and 36 h after changing the medium for the transfection, the experimental group is treated with (−)-blebbistatin for 4 h, and the HDR efficiency is analyzed by flow analysis 72 h after transfection. […] The experimental procedure is as follows: after changing the medium for the transfection, the control group is treated with DMSO; and after changing the medium for the transfection, the experimental group is treated with 250 nM RTA408; then the HDR efficiency is analyzed by flow analysis 72 h after transfection.

Question: How did the “fibrosis (Sirius red staining)” value [1] turn out when `Cc1ccc2c(c1)C(=O)[C@]1(O)CCN(c3ccccc3)C1=N2` [(−)-blebbistatin] was run?
Answer: significantly inhibits

Question: And the “Alb expression in GFP-expressing hepatocytes” value (CCl4 liver damage; Alb-cre x mTmG hybrid mice, CCl4 fibrosis modeling)?
Answer: most of the cells expressing GFP express Alb

Question: And the “expression of hepatocyte-related, bile duct-related and proliferation-related genes (transcriptional level)” value (CCl4 liver damage; compared with the control group)?
Answer: significantly maintains high level expression

Question: And the “content of liver damage indicators such as ALT, AST and GGT (blood biochemical analysis)” value (CCl4 liver damage; fasting 12-16 hours before sampling)?
Answer: reduce

Question: And the “apoptosis during liver damage (TUNEL staining)” value (CCl4 liver damage; mouse, in vivo)?
Answer: reduces

Question: What about the “cell proliferation after liver damage (ALB/Ki-67 staining)” value (CCl4 liver damage; mouse, in vivo) of the same compound?
Answer: significantly promotes

Question: What about the “rigidity of liver tissue (Young's modulus)” value (liver tissue; day 7 of the treatment) of the same compound?
Answer: significantly reduces

Question: What about the “massive parallel array of fibers in the liver tissue (second harmonic intravital scanning)” value (liver tissue; mouse, in vivo) of the same compound?
Answer: reduced

Question: And the “DNA replication, homologous recombination, mismatch repair, nucleotide excision repair and base excision repair related genes” value (human fibroblasts; 5-50 μM, after 6 hours)?
Answer: significantly upregulated

Question: And the “important genes involved in homologous recombination” value (human fibroblasts; 5-50 μM, after 6 hours)?
Answer: significantly upregulated

Question: What about the “genes related to initiation of regeneration (such as FST) and neurogenesis-related genes” value (human fibroblasts; after induction for 22 days under the neural induction system) of the same compound?
Answer: significantly upregulated

Question: And the “mRNA expression of general stress response genes” value (human fibroblasts; day 1 and day 2)?
Answer: begins to downregulate

Question: And the “genes related to general stress response (HSP70 family, HSP90)” value (human fibroblasts; early 6 hours of the induction)?
Answer: upregulated

Question: And the “efficiency of homologous recombination (HDR efficiency)” value [2]?
Answer: significantly increases
